The source made the active and inactive calls.
Columns and labels:
[1] = molecular target: T1, Sentrin-specific protease 8 (Homo sapiens, UniProt Q96LD8); format: functional
T1 sequence (Q96LD8 whole entry): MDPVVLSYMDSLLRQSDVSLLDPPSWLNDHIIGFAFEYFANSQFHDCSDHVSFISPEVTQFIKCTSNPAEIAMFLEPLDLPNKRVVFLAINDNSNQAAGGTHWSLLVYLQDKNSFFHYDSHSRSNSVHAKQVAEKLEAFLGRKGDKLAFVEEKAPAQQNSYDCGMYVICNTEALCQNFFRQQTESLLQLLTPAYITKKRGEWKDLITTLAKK

[2] = molecular target: T2, Caspase-6 (Homo sapiens, UniProt P55212); test: human caspase-6 inhibitors, dose response, biochemical, VEID-R110 fluorescence, cherry-pick (AID 720632)
T2 sequence (P55212 whole entry): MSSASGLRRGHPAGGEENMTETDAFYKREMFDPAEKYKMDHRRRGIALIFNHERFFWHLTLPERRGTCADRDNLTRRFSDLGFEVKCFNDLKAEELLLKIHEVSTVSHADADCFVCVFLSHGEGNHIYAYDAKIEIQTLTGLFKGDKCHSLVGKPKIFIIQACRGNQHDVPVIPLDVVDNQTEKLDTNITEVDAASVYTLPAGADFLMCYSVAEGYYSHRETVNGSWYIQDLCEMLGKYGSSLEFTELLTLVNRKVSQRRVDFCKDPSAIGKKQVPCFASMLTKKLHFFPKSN

[3] = molecular target: Phosphorylase b kinase gamma catalytic chain, liver/testis isoform (Homo sapiens, UniProt P15735); format: functional;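 note: PHKG2 measured as one member of a kinome-wide kinase panel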
[4] = molecular target: Proto-oncogene tyrosine-protein kinase Src (Homo sapiens, UniProt P12931); format: functional;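 note: SRC entry within a kinome-wide kinase profiling panel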
[5] = molecular target: Insulin-like growth factor 1 receptor (Homo sapiens, UniProt P08069); test: Navigating the Kinome. Panel member name: IGF1R; format: functional
[6] = molecular target: Serine/threonine-protein kinase SIK2 (Homo sapiens, UniProt Q9H0K1); test: Navigating the Kinome. Panel member name: SIK2; format: functional
[7] = molecular target: Dual specificity tyrosine-phosphorylation-regulated kinase 1A (Homo sapiens, UniProt Q13627); format: functional;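 note: measured against DYRK1A as one member of a broad kinome profiling panel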
[8] = molecular target: Interleukin-1 receptor-associated kinase 4 (Homo sapiens, UniProt Q9NWZ3); format: functional
[9] = molecular target: Hepatocyte growth factor receptor (Homo sapiens, UniProt P08581); format: functional;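 note: kinase panel profiling across the kinome, with MET as the panel member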
[10] = molecular target: Receptor-type tyrosine-protein kinase FLT3 (Homo sapiens, UniProt P36888); format: functional;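 note: FLT3 was tested as one member of a kinome-wide kinase panel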
[11] = molecular target: Cyclin-dependent kinase 2 (Homo sapiens, UniProt P24941); format: functional;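 note: CDK2 measured as one member of a broad kinome profiling panel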
[12] = molecular target: Protein kinase C theta type (Homo sapiens, UniProt Q04759); test: Navigating the Kinome. Panel member name: PRKCQ; format: functional
[13] = molecular target: Mast/stem cell growth factor receptor Kit (Homo sapiens, UniProt P10721); format: functional;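 note: KIT entry within a kinase panel assay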
[14] = molecular target: Homeodomain-interacting protein kinase 4 (Homo sapiens, UniProt Q8NE63); format: functional
[15] = molecular target: Non-receptor tyrosine-protein kinase TYK2 (Homo sapiens, UniProt P29597); format: functional
[16] = molecular target: ALK tyrosine kinase receptor (Homo sapiens, UniProt Q9UM73); format: functional;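 note: ALK tested as one member of a kinase panel screen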
[17] = molecular target: RAC-alpha serine/threonine-protein kinase (Homo sapiens, UniProt P31749); format: functional;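 note: AKT1 affinity measured as one member of a kinome-wide kinase profiling panel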
[18] = molecular target: Leucine-rich repeat serine/threonine-protein kinase 2 (Homo sapiens, UniProt Q5S007); format: functional;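 note: value from a broad kinome-wide panel profiling study in which LRRK2 was one of the kinases tested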
[19] = molecular target: Tyrosine-protein kinase receptor TYRO3 (Homo sapiens, UniProt Q06418); format: functional;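 note: TYRO3 value obtained as one member of a kinome-wide profiling panel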
[20] = molecular target: Ephrin type-A receptor 2 (Homo sapiens, UniProt P29317); format: functional;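 note: EPHA2 tested as one member of a kinome-wide kinase panel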
[21] = molecular target: Insulin receptor (Homo sapiens, UniProt P06213); format: functional;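 note: insulin receptor kinase tested as one member of a kinome-wide kinase panel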
[22] = molecular target: 5'-AMP-activated protein kinase catalytic subunit alpha-1 (Homo sapiens, UniProt Q13131); format: functional
[23] = molecular target: Dual specificity tyrosine-phosphorylation-regulated kinase 4 (Homo sapiens, UniProt Q9NR20); format: functional
[24] = molecular target: T3, Mannose-6-phosphate isomerase (Homo sapiens, UniProt P34949); test: human PMI inhibitors, high substrate, primary screen, biochemical, fluorescence intensity, high mannose 6-phosphate (AID 1220)
T3 sequence (P34949 whole entry): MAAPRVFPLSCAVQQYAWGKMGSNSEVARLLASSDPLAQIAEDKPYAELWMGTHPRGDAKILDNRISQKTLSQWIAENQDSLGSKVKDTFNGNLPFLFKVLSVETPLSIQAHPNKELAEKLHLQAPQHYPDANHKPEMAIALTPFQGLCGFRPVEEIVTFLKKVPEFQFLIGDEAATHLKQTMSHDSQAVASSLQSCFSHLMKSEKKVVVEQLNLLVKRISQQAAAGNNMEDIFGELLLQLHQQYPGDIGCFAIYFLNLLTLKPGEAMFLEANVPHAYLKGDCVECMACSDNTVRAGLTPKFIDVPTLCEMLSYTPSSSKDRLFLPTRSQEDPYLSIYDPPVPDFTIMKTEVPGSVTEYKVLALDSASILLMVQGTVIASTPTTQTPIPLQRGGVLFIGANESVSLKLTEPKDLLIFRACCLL

[25] = molecular target: T4, Neuropeptide Y receptor type 2 (Homo sapiens, UniProt P49146); test: Fluorescence-based counterscreen for agonists of NPY-Y1: cell-based high-throughput dose response assay for agonists of NPY-Y2.; format: functional
T4 sequence (P49146 whole entry): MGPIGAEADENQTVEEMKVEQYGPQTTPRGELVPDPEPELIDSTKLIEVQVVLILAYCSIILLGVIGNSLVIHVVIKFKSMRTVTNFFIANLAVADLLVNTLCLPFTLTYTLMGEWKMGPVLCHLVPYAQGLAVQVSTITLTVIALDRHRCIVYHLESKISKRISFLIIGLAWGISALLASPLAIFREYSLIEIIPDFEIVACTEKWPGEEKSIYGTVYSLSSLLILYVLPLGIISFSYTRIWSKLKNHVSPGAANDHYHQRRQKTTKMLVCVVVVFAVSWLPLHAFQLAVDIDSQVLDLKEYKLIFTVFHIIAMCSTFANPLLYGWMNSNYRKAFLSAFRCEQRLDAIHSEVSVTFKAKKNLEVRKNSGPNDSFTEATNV

Chain of 5'-AMP-activated protein kinase catalytic subunit alpha-1 (Q13131 whole entry): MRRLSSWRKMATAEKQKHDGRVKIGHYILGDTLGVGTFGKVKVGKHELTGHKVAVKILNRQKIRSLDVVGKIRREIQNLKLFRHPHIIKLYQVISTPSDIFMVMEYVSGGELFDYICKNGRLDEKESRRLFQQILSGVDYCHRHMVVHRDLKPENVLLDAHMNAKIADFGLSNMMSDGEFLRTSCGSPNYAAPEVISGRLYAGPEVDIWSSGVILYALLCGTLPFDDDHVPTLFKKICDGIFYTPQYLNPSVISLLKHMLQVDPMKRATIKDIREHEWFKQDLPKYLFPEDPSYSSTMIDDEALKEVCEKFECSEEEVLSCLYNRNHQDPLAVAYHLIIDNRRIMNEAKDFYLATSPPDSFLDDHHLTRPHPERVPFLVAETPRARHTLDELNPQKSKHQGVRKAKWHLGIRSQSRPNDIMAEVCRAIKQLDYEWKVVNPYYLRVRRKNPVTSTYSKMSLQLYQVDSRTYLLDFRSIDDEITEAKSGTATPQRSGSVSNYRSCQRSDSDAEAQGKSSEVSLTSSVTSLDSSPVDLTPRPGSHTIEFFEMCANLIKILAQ
Chain of Insulin-like growth factor 1 receptor (P08069 31-736 limits assumed): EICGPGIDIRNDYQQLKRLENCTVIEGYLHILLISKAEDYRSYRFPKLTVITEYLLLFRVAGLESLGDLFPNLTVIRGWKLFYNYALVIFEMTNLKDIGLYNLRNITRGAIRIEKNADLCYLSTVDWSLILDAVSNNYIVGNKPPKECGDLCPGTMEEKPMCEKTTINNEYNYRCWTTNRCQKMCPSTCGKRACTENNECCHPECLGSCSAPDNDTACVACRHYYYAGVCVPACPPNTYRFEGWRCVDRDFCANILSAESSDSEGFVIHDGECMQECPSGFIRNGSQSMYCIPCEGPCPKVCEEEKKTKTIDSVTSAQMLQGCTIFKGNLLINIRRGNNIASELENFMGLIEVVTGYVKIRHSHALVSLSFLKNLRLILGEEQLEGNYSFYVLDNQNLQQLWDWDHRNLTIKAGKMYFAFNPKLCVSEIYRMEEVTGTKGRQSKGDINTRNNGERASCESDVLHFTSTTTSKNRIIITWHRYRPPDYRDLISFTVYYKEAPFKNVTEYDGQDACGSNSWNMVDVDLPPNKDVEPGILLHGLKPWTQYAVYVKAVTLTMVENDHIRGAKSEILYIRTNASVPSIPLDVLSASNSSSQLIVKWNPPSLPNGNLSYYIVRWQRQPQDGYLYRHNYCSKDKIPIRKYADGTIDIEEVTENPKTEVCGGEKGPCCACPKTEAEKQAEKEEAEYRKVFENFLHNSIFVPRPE
Chain of Insulin-like growth factor 1 receptor (P08069 741-1367 limits assumed): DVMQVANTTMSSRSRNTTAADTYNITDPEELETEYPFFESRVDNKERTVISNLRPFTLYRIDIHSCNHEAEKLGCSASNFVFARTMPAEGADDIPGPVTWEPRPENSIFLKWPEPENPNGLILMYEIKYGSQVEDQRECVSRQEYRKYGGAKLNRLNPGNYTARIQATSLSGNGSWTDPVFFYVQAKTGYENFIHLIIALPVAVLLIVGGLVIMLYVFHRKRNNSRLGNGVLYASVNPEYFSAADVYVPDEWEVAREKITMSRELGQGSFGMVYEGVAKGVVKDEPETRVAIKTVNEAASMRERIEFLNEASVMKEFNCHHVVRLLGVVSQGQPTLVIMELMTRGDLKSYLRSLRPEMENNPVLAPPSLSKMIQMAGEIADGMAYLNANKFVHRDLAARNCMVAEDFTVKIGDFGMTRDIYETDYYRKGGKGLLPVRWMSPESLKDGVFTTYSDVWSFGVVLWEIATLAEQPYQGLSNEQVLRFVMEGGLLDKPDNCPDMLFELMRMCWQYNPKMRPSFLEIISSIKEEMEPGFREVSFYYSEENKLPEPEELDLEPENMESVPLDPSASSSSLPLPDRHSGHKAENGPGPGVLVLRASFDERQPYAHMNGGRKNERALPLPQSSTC
Chain of ALK tyrosine kinase receptor (Q9UM73 whole entry): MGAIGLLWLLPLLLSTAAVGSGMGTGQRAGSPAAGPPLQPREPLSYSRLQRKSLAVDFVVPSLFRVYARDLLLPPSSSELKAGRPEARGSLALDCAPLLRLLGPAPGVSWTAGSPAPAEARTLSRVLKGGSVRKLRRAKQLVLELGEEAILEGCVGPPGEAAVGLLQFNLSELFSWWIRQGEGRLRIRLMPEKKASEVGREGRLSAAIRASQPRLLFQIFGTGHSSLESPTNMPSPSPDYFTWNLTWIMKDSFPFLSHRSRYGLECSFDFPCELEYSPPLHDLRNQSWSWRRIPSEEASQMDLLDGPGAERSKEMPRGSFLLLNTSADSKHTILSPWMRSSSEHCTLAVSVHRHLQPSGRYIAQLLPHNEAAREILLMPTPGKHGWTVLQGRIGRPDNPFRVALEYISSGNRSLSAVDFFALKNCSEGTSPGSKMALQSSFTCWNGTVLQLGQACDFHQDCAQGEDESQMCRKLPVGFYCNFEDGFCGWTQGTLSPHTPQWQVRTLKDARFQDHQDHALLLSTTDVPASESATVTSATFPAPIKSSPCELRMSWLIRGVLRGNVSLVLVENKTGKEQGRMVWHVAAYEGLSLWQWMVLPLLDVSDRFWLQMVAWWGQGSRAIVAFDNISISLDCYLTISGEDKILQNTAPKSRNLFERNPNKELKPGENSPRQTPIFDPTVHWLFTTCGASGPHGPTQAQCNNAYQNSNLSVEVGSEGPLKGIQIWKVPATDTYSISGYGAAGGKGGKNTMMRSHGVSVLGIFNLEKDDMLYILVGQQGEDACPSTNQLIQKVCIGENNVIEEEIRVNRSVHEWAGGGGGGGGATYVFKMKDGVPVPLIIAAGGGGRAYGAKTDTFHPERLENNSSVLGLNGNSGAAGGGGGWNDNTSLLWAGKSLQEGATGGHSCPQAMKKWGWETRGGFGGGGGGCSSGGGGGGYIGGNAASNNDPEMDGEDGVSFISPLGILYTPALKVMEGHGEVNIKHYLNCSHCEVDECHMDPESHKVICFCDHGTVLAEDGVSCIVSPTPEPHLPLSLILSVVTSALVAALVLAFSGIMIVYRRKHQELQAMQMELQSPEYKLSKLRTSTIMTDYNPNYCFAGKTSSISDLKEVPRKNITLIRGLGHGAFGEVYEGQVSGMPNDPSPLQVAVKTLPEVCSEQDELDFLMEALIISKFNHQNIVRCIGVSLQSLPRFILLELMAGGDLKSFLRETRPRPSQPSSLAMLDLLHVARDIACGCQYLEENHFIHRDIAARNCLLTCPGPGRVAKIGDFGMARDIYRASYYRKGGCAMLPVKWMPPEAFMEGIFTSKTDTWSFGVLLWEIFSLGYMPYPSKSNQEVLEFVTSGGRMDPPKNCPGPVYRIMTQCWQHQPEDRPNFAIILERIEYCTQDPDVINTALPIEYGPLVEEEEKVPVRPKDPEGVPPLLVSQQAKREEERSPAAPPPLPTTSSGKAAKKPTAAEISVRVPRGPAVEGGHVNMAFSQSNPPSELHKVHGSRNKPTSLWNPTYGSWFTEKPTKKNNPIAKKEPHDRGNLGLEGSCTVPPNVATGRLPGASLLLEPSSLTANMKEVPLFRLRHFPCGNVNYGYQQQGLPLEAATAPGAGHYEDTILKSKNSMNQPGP
Chain of Insulin receptor (P06213 28-758 limits assumed): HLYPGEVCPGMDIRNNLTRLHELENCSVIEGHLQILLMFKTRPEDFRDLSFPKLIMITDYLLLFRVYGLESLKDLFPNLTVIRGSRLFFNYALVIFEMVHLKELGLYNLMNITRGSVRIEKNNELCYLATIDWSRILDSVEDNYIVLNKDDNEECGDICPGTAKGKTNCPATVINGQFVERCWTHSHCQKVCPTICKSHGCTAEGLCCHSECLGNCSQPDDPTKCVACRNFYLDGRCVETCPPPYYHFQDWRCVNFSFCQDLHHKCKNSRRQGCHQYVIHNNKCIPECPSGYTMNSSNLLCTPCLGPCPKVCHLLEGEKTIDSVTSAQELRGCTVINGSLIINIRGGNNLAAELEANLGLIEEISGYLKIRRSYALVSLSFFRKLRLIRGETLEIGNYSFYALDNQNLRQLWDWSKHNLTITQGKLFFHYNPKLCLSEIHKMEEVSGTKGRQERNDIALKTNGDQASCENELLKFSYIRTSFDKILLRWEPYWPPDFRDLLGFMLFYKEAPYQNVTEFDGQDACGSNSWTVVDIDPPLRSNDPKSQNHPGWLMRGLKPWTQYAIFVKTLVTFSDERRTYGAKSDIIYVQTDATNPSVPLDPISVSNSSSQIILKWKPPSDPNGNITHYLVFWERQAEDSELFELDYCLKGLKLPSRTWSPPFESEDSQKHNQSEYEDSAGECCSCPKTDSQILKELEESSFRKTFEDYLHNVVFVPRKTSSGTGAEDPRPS
Chain of Insulin receptor (P06213 763-1382 limits assumed): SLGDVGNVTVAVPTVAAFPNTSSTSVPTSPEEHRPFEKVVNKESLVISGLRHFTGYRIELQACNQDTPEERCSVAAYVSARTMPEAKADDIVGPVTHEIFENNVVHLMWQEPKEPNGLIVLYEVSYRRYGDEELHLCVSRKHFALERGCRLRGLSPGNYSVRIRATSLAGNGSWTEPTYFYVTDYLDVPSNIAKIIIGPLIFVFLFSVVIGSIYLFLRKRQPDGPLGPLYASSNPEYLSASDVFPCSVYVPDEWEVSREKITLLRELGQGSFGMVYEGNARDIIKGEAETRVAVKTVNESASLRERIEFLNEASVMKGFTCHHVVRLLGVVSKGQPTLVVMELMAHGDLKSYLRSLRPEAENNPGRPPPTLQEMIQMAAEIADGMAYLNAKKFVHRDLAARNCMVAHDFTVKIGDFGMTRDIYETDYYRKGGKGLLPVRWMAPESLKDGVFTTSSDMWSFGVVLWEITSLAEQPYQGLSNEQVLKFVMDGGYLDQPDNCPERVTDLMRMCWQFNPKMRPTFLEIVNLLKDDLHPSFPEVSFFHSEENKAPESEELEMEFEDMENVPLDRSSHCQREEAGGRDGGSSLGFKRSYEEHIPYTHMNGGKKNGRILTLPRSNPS

## O=C(COC(=O)c1ccc([N+](=O)[O-])s1)NCCc1ccccc1
[1]
  IC50: 2820 nM (active)
[2]
  AC50: 11000 nM (active)

## OC1CCC(Nc2cc(Cl)nc(-c3c[nH]c4ncccc34)n2)CC1 (stereo not given)
[3]
  Ki: > 5010 nM (inactive)
[4]
  Ki: > 2000 nM (inactive)
[5]
  Ki: > 2000 nM (inactive)
[6]
  Ki: 398 nM (active)
[7]
  Ki: 50.1 nM (active)
[8]
  Ki: 316 nM (active)
[9]
  Ki: > 2000 nM (inactive)
[10]
  Ki: 1000 nM (active)
[11]
  Ki: 251 nM (active)
[12]
  Ki: 100 nM (active)
[13]
  Ki: > 2510 nM (inactive)
[14]
  Ki: 1000 nM (active)
[15]
  Ki: > 1260 nM (inactive)
[16]
  Ki: > 2510 nM (inactive)
[17]
  Ki: > 5010 nM (inactive)
[18]
  Ki: 31.6 nM (active)
[19]
  Ki: > 2510 nM (inactive)
[20]
  Ki: > 3160 nM (inactive)
[21]
  Ki: > 3980 nM (inactive)
[22]
  Ki: 200 nM (active)
[23]
  Ki: 1580 nM (active)

## COCC/N=c1\scc(-c2cccs2)n1/N=C/c1ccc(O)c(O)c1O
[24]
  IC50: 23800 nM (active)
[25]
  EC50: 19300 nM (not active)

— ChEMBL document CHEMBL1201862, “PubChem BioAssay data set” (2004)
